One data set addresses T1, CYP3A4 (Homo sapiens, UniProt P08684).
T1 construct: pre-incubated with human liver microsomes and NADPH; from tissue; host or cells: human liver microsomes
The data set can be described thus: Cytochrome P450 inhibition assay (midazolam hydroxylation). The data set is classed as in vitro ADME. To be noted: human, human liver microsomes, probe midazolam (hydroxylation to 1′-hydroxymidazolam), 10 μM test compound, midazolam at approximately its Km. On the procedure:
Compounds were tested for the potential to induce drug-drug interactions by inhibition of the cytochrome P450 3A4 isoform. The assay evaluated the metabolism of a specific marker substrate (CYP3A4, midazolam hydroxylation to 1′-hydroxymidazolam) in the presence or absence of 10 μM test compound. The concentration of the marker substrate was approximately its Km (Dixit et al., Biopharm. Drug Dispos. 2007, 28(5), 257-262). A specific inhibitor for the isoform was included in each run to validate the system. An appropriate positive control inhibitor was used. Mechanism-based inhibition was investigated where warranted using a classical method. To evaluate time-dependent inhibition, parallel samples may have been included where […] was pre-incubated with human liver microsomes and NADPH for 30 min prior to the addition of the P450 substrate. The percent inhibition of the pre-incubated and non-pre-incubated samples were compared as a preliminary evaluation of time-dependent inhibition.
T1 sequence (P08684 whole entry): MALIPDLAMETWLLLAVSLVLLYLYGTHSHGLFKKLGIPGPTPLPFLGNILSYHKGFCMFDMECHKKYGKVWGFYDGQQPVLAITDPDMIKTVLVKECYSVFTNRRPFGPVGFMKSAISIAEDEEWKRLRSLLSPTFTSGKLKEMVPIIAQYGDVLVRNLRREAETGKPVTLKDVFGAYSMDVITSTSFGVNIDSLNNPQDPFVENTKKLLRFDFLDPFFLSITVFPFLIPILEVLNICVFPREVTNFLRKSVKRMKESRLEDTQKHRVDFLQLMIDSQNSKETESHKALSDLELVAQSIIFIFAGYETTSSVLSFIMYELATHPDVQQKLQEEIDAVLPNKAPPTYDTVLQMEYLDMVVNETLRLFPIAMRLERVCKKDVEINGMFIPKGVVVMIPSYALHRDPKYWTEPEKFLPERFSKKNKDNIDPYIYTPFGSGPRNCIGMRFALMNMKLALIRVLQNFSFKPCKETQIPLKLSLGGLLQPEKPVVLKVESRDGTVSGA
In turn, `Cc1ccc(-n2nccn2)c(C(=O)N2CCC[C@@H](C)[C@H]2CNc2ncc(Cl)cc2F)c1` [Example A173, ((2S,3R)-2-(((5-Chloro-3-fluoropyridin-2-yl)amino)methyl)-3-methylpiperidin-1-yl)(5-methyl-2-(2H-1,2,3-triazol-2-yl)phenyl)methanone] came in with an inhibition at 10 µM of 81%.
In the case of `Cc1ccc(-n2nccn2)c(C(=O)N2CCC[C@@H](C)[C@H]2CNc2nnc(C(F)(F)F)s2)n1` [Example A191, ((2S,3R)-3-Methyl-2-(((5-(trifluoromethyl)-1,3,4-thiadiazol-2-yl)amino)methyl)piperidin-1-yl)(6-methyl-3-(2H-1,2,3-triazol-2-yl)pyridin-2-yl)methanone], the inhibition at 10 µM amounted to 44%.
For the compound `Cc1ccc(-c2ccccn2)c(C(=O)N2CCC[C@@H](C)[C@H]2CNc2nnc(C(F)(F)F)s2)c1` [Example A151, ((2S,3R)-3-Methyl-2-(((5-(trifluoromethyl)-1,3,4-thiadiazol-2-yl)amino)methyl)piperidin-1-yl)(5-methyl-2-(pyridin-2-yl)phenyl)methanone], at 10 µM the inhibition was 86%.
On to `Cc1ccc(-c2ccnn2C)c(C(=O)N2CCC[C@@H](C)[C@H]2CNc2nc3cc(Cl)ccc3o2)c1` [Example A36, ((2S,3R)-2-(((5-Chlorobenzo[d]oxazol-2-yl)amino)methyl)-3-methylpiperidin-1-yl)(5-methyl-2-(1-methyl-1H-pyrazol-5-yl)phenyl)methanone], for which 10 µM produced 97% inhibition.
Consider `Cc1ccc(-c2ccc(F)cc2)c(C(=O)N2CCC[C@@H](C)[C@H]2CNc2ccc(C(F)(F)F)cn2)n1` [Example A73, (3-(4-Fluorophenyl)-6-methylpyridin-2-yl)((2S,3R)-3-methyl-2-(((5-(trifluoromethyl)pyridin-2-yl)amino)methyl)piperidin-1-yl)methanone], for which 10 µM produced 76% inhibition.
Take `Cc1nc(C(=O)N2CCCC(C)C2CNc2ncc(C(F)(F)F)cn2)c(-c2ccc(F)cc2)s1` (racemic) [Example A311, (+/−)-cis-(5-(4-Fluorophenyl)-2-methylthiazol-4-yl)(3-methyl-2-(((5-(trifluoromethyl)pyrimidin-2-yl)amino)methyl)piperidin-1-yl)methanone]: at 10 µM the inhibition was 57%.
Take `Cc1ccc(C#N)c(C(=O)N2CCC[C@@H](C)[C@H]2CNc2ccc(C(F)(F)F)cn2)c1` [Example A22, 4-Methyl-2-((2S,3R)-3-methyl-2-(((5-(trifluoromethyl)pyridin-2-yl)amino)methyl)piperidine-1-carbonyl)benzonitrile]: the inhibition at 10 µM is 72%.
Same read-out and setting: the result for `Cc1ccc(-c2cncs2)c(C(=O)N2CCC[C@@H](C)[C@H]2CNc2nc3cc(Cl)ccc3o2)c1` [Example A34, ((2S,3R)-2-(((5-Chlorobenzo[d]oxazol-2-yl)amino)methyl)-3-methylpiperidin-1-yl)(5-methyl-2-(thiazol-5-yl)phenyl)methanone] reads 99%; that for `Cc1ccc(-c2cnn(C)c2)c(C(=O)N2CCC[C@@H](C)[C@H]2CNc2ncc(F)cc2F)c1` [Example A96, ((2S,3R)-2-(((3,5-Difluoropyridin-2-yl)amino)methyl)-3-methylpiperidin-1-yl)(5-methyl-2-(1-methyl-1H-pyrazol-4-yl)phenyl)methanone], 92%; that for `Cc1cccc(C(=O)N2CCC[C@@H](C)[C@H]2CNc2ncc(Cl)cn2)c1-n1nccn1` [Example A268, ((2S,3R)-2-(((5-Chloropyrimidin-2-yl)amino)methyl)-3-methylpiperidin-1-yl)(3-methyl-2-(2H-1,2,3-triazol-2-yl)phenyl)methanone], 60%.
Compound `Cc1ccc(-n2nccn2)c(C(=O)N2CCC[C@@H](C)[C@H]2CNc2ncccc2C#N)c1` [Example A90, 2-((((2S,3R)-3-Methyl-1-(5-methyl-2-(2H-1,2,3-triazol-2-yl)benzoyl)piperidin-2-yl)methyl)amino)nicotinonitrile] gave an inhibition at 10 µM of 33%.
The same measure, in the same setting: the result for `Cc1ccc(-c2ccc(C)nc2)c(C(=O)N2CCC[C@@H](C)[C@H]2CNc2nc3cc(Cl)ccc3o2)c1` [Example A38, ((2S,3R)-2-(((5-Chlorobenzo[d]oxazol-2-yl)amino)methyl)-3-methylpiperidin-1-yl)(5-methyl-2-(6-methylpyridin-3-yl)phenyl)methanone] reads 96%.

The next data set has as its target T2, OX1 (Homo sapiens, UniProt O43613).
T2 construct: expressed in transfected cells; host or cells: CHO (CHO-OX1, kept under selection antibiotic)
T2 sequence (O43613 1-425): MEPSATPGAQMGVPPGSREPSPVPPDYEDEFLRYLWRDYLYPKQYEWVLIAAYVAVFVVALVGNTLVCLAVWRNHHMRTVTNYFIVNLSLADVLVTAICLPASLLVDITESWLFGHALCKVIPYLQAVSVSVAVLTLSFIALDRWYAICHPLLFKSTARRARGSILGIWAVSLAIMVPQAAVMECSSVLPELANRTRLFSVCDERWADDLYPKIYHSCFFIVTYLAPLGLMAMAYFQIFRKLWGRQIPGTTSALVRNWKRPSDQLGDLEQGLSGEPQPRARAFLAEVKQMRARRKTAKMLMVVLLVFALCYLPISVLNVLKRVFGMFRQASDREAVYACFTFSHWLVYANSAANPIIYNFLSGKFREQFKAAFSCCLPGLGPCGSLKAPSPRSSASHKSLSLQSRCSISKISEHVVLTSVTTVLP
The experiment in a line: Orexin receptor cell-based functional assay, [Ca2+]i by FLIPR, CHO-OX1 cells. The note with it: CHO-OX1 cells, [Ca2+]i by FLIPR, antagonist dose-range 0.1 nM-10 μM, EC90 of OXA; read-out: OX1. The gist of the method:
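CHO cells expressing human OX1 or OX2 loaded with calcium dye plus 2.5 mM probenecid at 37° C (calcium4, 30 min, or calcium6, 2 h), then exposed to compounds (0.1 nM-10 μM) for 30 min. Intracellular Ca2+ measured on FLIPR; antagonist format.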
With `Cc1ccc(-c2ccnn2C)c(C(=O)N2CCC[C@@H](C)[C@H]2CNc2ccc(F)cn2)c1` [Example A61, ((2S,3R)-2-(((5-Fluoropyridin-2-yl)amino)methyl)-3-methylpiperidin-1-yl)(5-methyl-2-(1-methyl-1H-pyrazol-5-yl)phenyl)methanone], the IC50 amounted to 1100 nM.
As to `Cc1ccc(C(=O)N2CCC[C@@H](C)[C@H]2CNc2ncc(C(F)(F)F)cn2)c(-n2nccn2)c1` [Example A272, ((2S,3R)-3-Methyl-2-(((5-(trifluoromethyl)pyrimidin-2-yl)amino)methyl)piperidin-1-yl)(4-methyl-2-(2H-1,2,3-triazol-2-yl)phenyl)methanone], the IC50 turned out to be 14 nM.

Staying with this data set, now noted: Table 2; CHO-OX1 cells, EC90 of OXA; read-out: IC50 Bioactivity OX1.
For the compound `Cc1ccc(NC[C@@H]2[C@H](C)CCCN2C(=O)c2nc(C)sc2-c2ccc(F)cc2)nc1` (racemic) [Example 86, rac-cis-(3-Methyl-2-(((5-methylpyridin-2-yl)amino)methyl)piperidin-1-yl)(5-(4-fluorophenyl)-2-methylthiazol-4-yl)methanone], the IC50 amounted to 22 nM.
With `Cc1nc(C(=O)N2CC(F)CCC2CNC(=O)c2cccc3cccnc23)c(-c2ccccc2)s1` (racemic) [Example 1, N-((5-Fluoro-1-(2-methyl-5-phenylthiazole-4-carbonyl)piperidin-2-yl)methyl)quinoline-8-carboxamide], the IC50 stood at 1 nM.
Take `Cc1nc(C(=O)N2CC3CCCCC3C2CNC(=O)c2cccc3occc23)c(-c2ccccc2)s1` (single isomer, unassigned) [Example 70]: the IC50 came to 170 nM.
Same read-out and setting: the result for `Cc1ccc(-n2cncn2)c(C(=O)N2CCC[C@@H](C)[C@H]2CNc2ccc(C(F)(F)F)cn2)c1` (racemic) [Example 117, rac-cis-(3-Methyl-2-(((5-(trifluoromethyl)pyridin-2-yl)amino)methyl)piperidin-1-yl)(5-methyl-2-(1H-1,2,4-triazol-1-yl)phenyl)methanone] reads 38 nM; that for `COc1c(F)cccc1C(=O)NCC1CCCC(C)N1C(=O)c1nc(C)sc1-c1ccc(F)cc1` (racemic) [Example 60, rac-3-Fluoro-N-((1-(5-(4-fluorophenyl)-2-methylthiazole-4-carbonyl)-6-methylpiperidin-2-yl)methyl)-2-methoxybenzamide], 1 nM.
On the same count and under the same terms, the result for `O=C(NCC1CCC(NCc2ccccc2)CN1C(=O)c1ccccc1-c1ccccc1)c1cccc2cccnc12` (racemic) [Example 40, N-((5-(Benzylamino)-1-(biphenylcarbonyl)piperidin-2-yl)methyl)quinoline-8-carboxamide] reads 600 nM.
As for `CO[C@@H]1CCCN(C(=O)c2nc(C)sc2-c2ccc(F)cc2)[C@@H]1CNc1ccc(C(F)(F)F)cn1` (racemic) [Example 92, rac-cis-(3-Methoxy-2-(((5-(trifluoromethyl)pyridin-2-yl)amino)methyl)piperidin-1-yl) (5-(4-fluorophenyl)-2-methylthiazol-4-yl)methanone], the IC50 stood at 560 nM.
Turning to `Cc1nc(C(=O)N2C[C@H]3CCC[C@H]3C2CNc2nc3ccccc3o2)c(-c2ccc(F)cc2)s1` (mixture of isomers) [Example 100, (1-((Benzo[d]oxazol-2-ylamino)methyl)hexahydrocyclopenta[c]pyrrol-2(1H)-yl)(5-(4-fluorophenyl)-2-methylthiazol-4-yl)methanone], the IC50 came out at 8 nM.
As to `Cc1nc(-c2ccccc2)c(C(=O)N2CC[C@@H](O)C[C@H]2CNC(=O)c2cccc3cccnc23)s1` [Example 134, N-(((2S,4R)-4-Hydroxy-1-(2-methyl-4-phenylthiazole-5-carbonyl)piperidin-2-yl)methyl)quinoline-8-carboxamide], the IC50 was found to be 5 nM.
For the compound `CO[C@@H]1CCCN(C(=O)c2nc(C)sc2-c2ccc(F)cc2)[C@@H]1CNc1nc2ccccc2s1` (racemic) [Example 94, rac-cis-(2-((Benzo[d]thiazol-2-ylamino)methyl)-3-methoxypiperidin-1-yl)(5-(4-fluorophenyl)-2-methylthiazol-4-yl)methanone], the IC50 was found to be 76 nM.

The values above are taken from patent US9440982B2 (Eolas Therapeutics, Inc., priority 2012, dated 2016).
